Assay results as given in US20260334439A1, “BCAT2 INHIBITORS” (Agios Pharmaceuticals, Inc., priority 2023, published 2026).

How the values were obtained:
BCAT2 [1] = target: T1, BCAT2 (Homo sapiens, UniProt O15382); assay: BCAT2 in vitro enzyme inhibition assay (hBCAT2, glutamate dehydrogenase/diaphorase/resazurin coupled fluorescence read); type: biochemical; conditions: hBCAT2, 1 h preincubation at 25° C., one hour reaction; average where tested multiple times
T1 sequence (O15382 28-392): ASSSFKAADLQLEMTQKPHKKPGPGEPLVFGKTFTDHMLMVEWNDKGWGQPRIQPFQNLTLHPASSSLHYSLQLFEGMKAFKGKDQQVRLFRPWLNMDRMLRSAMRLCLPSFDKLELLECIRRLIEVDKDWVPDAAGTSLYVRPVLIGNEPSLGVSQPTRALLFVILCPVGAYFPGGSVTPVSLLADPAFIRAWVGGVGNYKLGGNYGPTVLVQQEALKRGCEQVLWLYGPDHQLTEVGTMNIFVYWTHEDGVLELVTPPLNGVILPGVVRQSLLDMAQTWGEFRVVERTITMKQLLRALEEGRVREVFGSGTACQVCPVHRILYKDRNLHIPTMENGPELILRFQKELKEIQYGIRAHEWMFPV
Outline: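 hBCAT2 (0.33 μg/mL in mix) preincubated 1 h at 25 °C with compound (top 100 μM, 3-fold, 10 points) in Tris pH 8.0/NaCl/BSA; substrate mix added (L-leucine, α-ketoglutarate, GDH, NAD, diaphorase, resazurin), quenched with SDS after 1 h, fluorescence Ex 540/Em 590; duplicates, repeat tests averaged.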

BCAT2 [2] = target: T1, BCAT2; assay: BCAT2 cell inhibition using engineered A549 cells (MUT KO, BCAT1 KO; 13C6-KMV formation by LC-MS/MS); type: cell-based; set-up: expressed endogenous BCAT2; endogenous in cells; host or cells: A549 cells, MUT knockout and BCAT1 knockout
From the text: Endogenous Methylmalonyl-CoA Mutase (MUT) and Branched Chain Aminotransferase 1 (BCAT1) in A549 cells was knocked out by CRISPR/CAS9 using the targeting system from TransOMIC Technologies. The following guide sequence was cloned into pCLIP-ALL-EFS-Blast vector to target human MUT: […] (SEQ ID NO: 35). The following guide sequence was cloned into pCLIP-ALL-EFS-Puro vector to target human BCAT1: […] (SEQ ID NO: 36). The resulting plasmids were co-transfected into 293T cells with VSV-G, P-PEX, and Fugene-6. Lentivirus was harvested and A549 cells were first transduced with lentivirus targeting MUT and polybrene. After genetic selection with blasticidin clonal selection was performed and validated via western blot analysis to confirm MUT was no longer expressed. These MUT KO cells were then transduced with lentivirus targeting BCAT1 and polybrene. After selection with puromycin clonal selection was performed and clones were validated via western blot analysis to confirm BCAT1 was no longer expressed in these cells. The result was an engineered A549 cell line that expressed endogenous BCAT2.
For KMV cell assays, on day 1, 25,000 cells/100 μL EMEM (10% FBS) were seeded in each well of a 96-well plate. On day 2, medium was replaced with 50 μL fresh EMEM (10% dialyzed FBS) containing 2× the assay concentration of experimental compound. After 15 minutes, 50 μL of 800 uM ^15N,^13C6-Isoleucine in EMEM (10% dialyzed FBS) was added to each well and incubated for 24 hours. On day 3, 50 μL of media from each well was collected and transferred to another 96-well plate for ^13C6-3-Methyl-2-Oxopentanoic Acid (KMV) analysis via LC-MS/MS. In the remaining assay wells 50 μL of Promega Glo CTG reagent was added and luminescence was measured as a cell viability readout.
For LC-MS/MS analysis 5 μL of cell assay media from each well was transferred to a 96-well plate and 45 μL of ACN:0.1% NaOH (50:50, v/v)^+0.20 nM d8-KMV was added and mixed on a shaker. 15 μL was transferred to a new 96-well plate and 15 μL of 10 mg/mL PFBHA solution was added and mixed on the shaker. The reaction was placed on ice for 30 minutes and quenched with 10 μL of ACN: Acetone (50:50, v/v) on a shaker. The resulting mixture was diluted with 100 μL of ACN:0.1% NaOH (50:50, v/v) on a shaker. 10 μL of sample were injected on the Shimadzu 20AD LC-MS/MS to quantify ^13C6-KMV.
Where a compound was tested multiple times, the average value of the tests is reported.

[3] = read-out: BCAT2 Cell Inhibition (IC50), engineered A549 cells, 24 hours, 13C6-KMV in media, average where tested multiple times

| SMILES | IC50 (BCAT2 [1]) | IC50 (BCAT2 [2]; engineered A549 cells, 24 hours, 13C6-KMV in media, average where tested multiple times, read-out: BCAT2 Cell Inhibition (IC50)) | IC50 (BCAT2 [2]) | IC50 (BCAT2 [2]; [3]) |
| --- | --- | --- | --- | --- |
| O=C(N[C@@H]1C[C@@H](OC(F)F)C[C@H](n2c(-c3ccccc3F)nc3cnc(-c4ncn[nH]4)cc32)C1)c1cc(F)ccn1 (relative stereo) [compound 128] | < 0.1 µM | 0.1 to 0.5 µM | – | – |
| CN1CC(NC(=O)c2cc(Cl)ccc2O)C[C@H](n2c(-c3ccccc3F)nc3cnc(-c4nc[nH]n4)cc32)C1 (stereo in doubt) [Example 143, 5-chloro-N-(5-(2-(2-fluorophenyl)-6-(1H-1,2,4-triazol-3-yl)-1H-imidazo[4,5-c]pyridin-1-yl)-1-methylpiperidin-3-yl)-2-hydroxybenzamide] | < 0.1 µM | – | < 0.1 µM | – |
| COc1ccc(Cl)cc1C(=O)N[C@H]1CCC[C@@H](n2c(-c3ccccc3F)nc3cnc(-c4nc[nH]n4)cc32)C1 [Example 1, 5-chloro-N-((1S,3R)-3-(2-(2-fluorophenyl)-6-(1H-1,2,4-triazol-3-yl)-1H-imidazo[4,5-c]pyridin-1-yl)cyclohexyl)-2-methoxybenzamide] | < 0.1 µM | – | < 0.1 µM | – |
| COc1cccc(F)c1C(=O)N[C@H]1CCC[C@@H](n2c(-c3ccccc3F)nc3cnc(-c4nc[nH]n4)cc32)C1 [Example 2, 2-fluoro-N-((1S,3R)-3-(2-(2-fluorophenyl)-6-(1H-1,2,4-triazol-3-yl)-1H-imidazo[4,5-c]pyridin-1-yl)cyclohexyl)-6-methoxybenzamide] | < 0.1 µM | – | – | > 1 µM |
| O=C(N[C@H]1CCC[C@@H](n2c(-c3ccccc3F)nc3cnc(-c4nc[nH]n4)cc32)C1)c1ccccc1Cl [Example 3, 2-chloro-N-((1S,3R)-3-(2-(2-fluorophenyl)-6-(1H-1,2,4-triazol-3-yl)-1H-imidazo[4,5-c]pyridin-1-yl)cyclohexyl)benzamide] | < 0.1 µM | – | 0.1 to 0.5 µM | – |
| O=C(N[C@H]1CCC[C@@H](n2c(-c3ccccc3F)nc3cnc(-c4nc[nH]n4)cc32)C1)c1cc(Cl)ccc1OC(F)(F)F [Example 4, 5-chloro-N-((1S,3R)-3-(2-(2-fluorophenyl)-6-(1H-1,2,4-triazol-3-yl)-1H-imidazo[4,5-c]pyridin-1-yl)cyclohexyl)-2-(trifluoromethoxy)benzamide] | < 0.1 µM | – | 0.5 to 1 µM | – |
| COc1ccccc1C(=O)N[C@H]1CCC[C@@H](n2c(-c3ccccc3F)nc3cnc(-c4nc[nH]n4)cc32)C1 [Example 5, N-((1S,3R)-3-(2-(2-fluorophenyl)-6-(1H-1,2,4-triazol-3-yl)-1H-imidazo[4,5-c]pyridin-1-yl)cyclohexyl)-2-methoxybenzamide] | < 0.1 µM | – | < 0.1 µM | – |
| CCOc1ccc(Cl)cc1C(=O)N[C@H]1CCC[C@@H](n2c(-c3ccccc3F)nc3cnc(-c4nc[nH]n4)cc32)C1 [Example 6, 5-chloro-2-ethoxy-N-((1S,3R)-3-(2-(2-fluorophenyl)-6-(1H-1,2,4-triazol-3-yl)-1H-imidazo[4,5-c]pyridin-1-yl)cyclohexyl)benzamide] | < 0.1 µM | – | < 0.1 µM | – |
| O=C(N[C@H]1CCC[C@@H](n2c(-c3ccccc3F)nc3cnc(-c4nc[nH]n4)cc32)C1)c1cc(Cl)ccn1 [Example 7, 4-chloro-N-((1S,3R)-3-(2-(2-fluorophenyl)-6-(1H-1,2,4-triazol-3-yl)-1H-imidazo[4,5-c]pyridin-1-yl)cyclohexyl)picolinamide] | < 0.1 µM | – | < 0.1 µM | – |
| O=C(N[C@H]1CCC[C@@H](n2c(-c3ccccc3F)nc3cnc(-c4nc[nH]n4)cc32)C1)c1ncccc1Cl [Example 10, 3-chloro-N-((1S,3R)-3-(2-(2-fluorophenyl)-6-(1H-1,2,4-triazol-3-yl)-1H-imidazo[4,5-c]pyridin-1-yl)cyclohexyl)picolinamide] | < 0.1 µM | – | 0.5 to 1 µM | – |
| O=C(N[C@H]1CCC[C@@H](n2c(-c3ccccc3F)nc3cnc(-c4nc[nH]n4)cc32)C1)c1ncccc1F [Example 11, 3-fluoro-N-((1S,3R)-3-(2-(2-fluorophenyl)-6-(1H-1,2,4-triazol-3-yl)-1H-imidazo[4,5-c]pyridin-1-yl)cyclohexyl)picolinamide] | < 0.1 µM | – | 0.5 to 1 µM | – |
| O=C(N[C@H]1CCC[C@@H](n2c(-c3ccccc3F)nc3cnc(-c4nc[nH]n4)cc32)C1)c1ccc(Cl)cn1 [Example 13, 5-chloro-N-((1S,3R)-3-(2-(2-fluorophenyl)-6-(1H-1,2,4-triazol-3-yl)-1H-imidazo[4,5-c]pyridin-1-yl)cyclohexyl)picolinamide] | < 0.1 µM | – | < 0.1 µM | – |
| O=C(N[C@H]1CCC[C@@H](n2c(-c3ccccc3F)nc3cnc(-c4nc[nH]n4)cc32)C1)c1cc(F)ccn1 [Example 14, 4-fluoro-N-((1S,3R)-3-(2-(2-fluorophenyl)-6-(1H-1,2,4-triazol-3-yl)-1H-imidazo[4,5-c]pyridin-1-yl)cyclohexyl)picolinamide] | < 0.1 µM | – | < 0.1 µM | – |
| O=C(N[C@H]1CCC[C@@H](n2c(-c3ncccc3F)nc3cnc(-c4nc[nH]n4)cc32)C1)c1cc(Cl)ccn1 [Example 15, 4-chloro-N-((1S,3R)-3-(2-(3-fluoropyridin-2-yl)-6-(1H-1,2,4-triazol-3-yl)-1H-imidazo[4,5-c]pyridin-1-yl)cyclohexyl)picolinamide] | < 0.1 µM | – | < 0.1 µM | – |
| O=C(N[C@H]1CCC[C@@H](n2c(-c3ncccc3F)nc3cnc(-c4nc[nH]n4)cc32)C1)c1cc(F)ccn1 [Example 16, 4-fluoro-N-((1S,3R)-3-(2-(3-fluoropyridin-2-yl)-6-(1H-1,2,4-triazol-3-yl)-1H-imidazo[4,5-c]pyridin-1-yl)cyclohexyl)picolinamide] | < 0.1 µM | – | 0.1 to 0.5 µM | – |
| CC(C)Oc1ccc(Cl)cc1C(=O)N[C@H]1CCC[C@@H](n2c(-c3ccccc3F)nc3cnc(-c4nc[nH]n4)cc32)C1 [Example 18, 5-chloro-N-((1S,3R)-3-(2-(2-fluorophenyl)-6-(1H-1,2,4-triazol-3-yl)-1H-imidazo[4,5-c]pyridin-1-yl)cyclohexyl)-2-isopropoxybenzamide] | < 0.1 µM | – | < 0.1 µM | – |
| O=C(N[C@H]1CCC[C@@H](n2c(-c3ccccc3F)nc3cnc(-c4nc[nH]n4)cc32)C1)c1ccc(F)cn1 [Example 19, 5-fluoro-N-((1S,3R)-3-(2-(2-fluorophenyl)-6-(1H-1,2,4-triazol-3-yl)-1H-imidazo[4,5-c]pyridin-1-yl)cyclohexyl)picolinamide] | < 0.1 µM | – | 0.1 to 0.5 µM | – |
| CCN(C)c1nc2cnc(-c3nc[nH]n3)cc2n1[C@@H]1CCC[C@H](NC(=O)c2cc(Cl)ccn2)C1 [Example 21, 4-chloro-N-((1S,3R)-3-(2-(ethyl(methyl)amino)-6-(1H-1,2,4-triazol-3-yl)-1H-imidazo[4,5-c]pyridin-1-yl)cyclohexyl)picolinamide] | 0.1 to 0.5 µM | – | – | > 1 µM |
| O=C1c2cc(F)ccc2CN1[C@H]1CCC[C@@H](n2c(-c3ccccc3F)nc3cnc(-c4ncccc4F)cc32)[C@@H]1O [Example 190, 6-fluoro-2-((1S,2S,3R)-3-(2-(2-fluorophenyl)-6-(3-fluoropyridin-2-yl)-1H-imidazo[4,5-c]pyridin-1-yl)-2-hydroxycyclohexyl)isoindolin-1-one] | – | – | < 0.1 µM | – |
